According to article PMC9217908, “Screening of commonly prescribed drugs for effects on the CAT1-mediated transport of L-arginine and arginine derivatives” (Amino Acids, 2022):
Like-named read-outs stand apart in the source and are kept apart here.

Tests used:
Assay in all cases: cell-based
[1] = target: T1, CAT1 (cationic amino acid transporter 1, CAT1/SLC7A1) (Homo sapiens, UniProt P30825); set-up: species or system HEK-CAT1 (HEK293 stably transfected); Inhibition of net CAT1-mediated [3H]-L-arginine (100 uM) uptake, 5 min, scintillation counting, vector control subtracted; conditions: HEK293, L-arginine 100 uM as substrate; for inhibition at 20 µM: read-out: % Inhibition of L-arginine uptake at 20 µM; for inhibition at 200 µM: read-out: % Inhibition of L-arginine uptake at 200 µM
T1 construct: full-length human transporter stably transfected in HEK cells (HEK-CAT1); net uptake against HEK-VC vector control cells
How it was run: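 HEK-CAT1 and vector-control HEK-VC cells took up [3H]-L-arginine (100 μM) for 5 min, with or without drug at 20 or 200 µM; [3H]-L-homoarginine or [3H]-ADMA uptake ran 2.5 min. Net uptake is CAT1 minus VC cells, and inhibition (%) = 100 − (V/V0 × 100). Negative values mean stimulated uptake.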

[2] = target: T1, CAT1 (cationic amino acid transporter 1, CAT1/SLC7A1); set-up: species or system HEK-CAT1 (HEK293 stably transfected); Inhibition of net CAT1-mediated [3H]-ADMA (1 uM) uptake, 2.5 min, scintillation counting, vector control subtracted; conditions: HEK293, ADMA 1 uM as substrate; for inhibition at 20 µM: read-out: % Inhibition of ADMA uptake at 20 µM; for inhibition at 200 µM: read-out: % Inhibition of ADMA uptake at 200 µM
How it was run: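 HEK cells expressing CAT1 and vector-control cells took up [^3H]-L-arginine for 5 min, or [^3H]-L-homoarginine or [^3H]-ADMA (1 μM) for 2.5 min, with or without drug at 20 or 200 µM. Net CAT1 uptake was CAT1 cells minus control cells, and inhibition (%) = 100 − V/V0×100. Negative values mean stimulation; n = 6–9.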

[3] = target: T1, CAT1 (cationic amino acid transporter 1, CAT1/SLC7A1); set-up: species or system HEK-CAT1 (HEK293 stably transfected); Inhibition of net CAT1-mediated [3H]-L-homoarginine (1 uM) uptake, 2.5 min, scintillation counting, vector control subtracted; conditions: HEK293, L-homoarginine 1 uM as substrate; for inhibition at 20 µM: read-out: % Inhibition of L-homoarginine uptake at 20 µM; for inhibition at 200 µM: read-out: % Inhibition of L-homoarginine uptake at 200 µM
How it was run: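 HEK-CAT1 cells with HEK-VC vector controls; [3H]-L-homoarginine (1 μM) uptake over 2.5 min with or without test compound at 20 µM or 200 µM. Net CAT1 uptake (CAT1 minus VC) gives inhibition (%) = 100 – (V/V0 × 100). Negative values mean stimulated uptake; n = 6–9 from at least two independent experiments.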

T1 sequence (P30825 whole entry): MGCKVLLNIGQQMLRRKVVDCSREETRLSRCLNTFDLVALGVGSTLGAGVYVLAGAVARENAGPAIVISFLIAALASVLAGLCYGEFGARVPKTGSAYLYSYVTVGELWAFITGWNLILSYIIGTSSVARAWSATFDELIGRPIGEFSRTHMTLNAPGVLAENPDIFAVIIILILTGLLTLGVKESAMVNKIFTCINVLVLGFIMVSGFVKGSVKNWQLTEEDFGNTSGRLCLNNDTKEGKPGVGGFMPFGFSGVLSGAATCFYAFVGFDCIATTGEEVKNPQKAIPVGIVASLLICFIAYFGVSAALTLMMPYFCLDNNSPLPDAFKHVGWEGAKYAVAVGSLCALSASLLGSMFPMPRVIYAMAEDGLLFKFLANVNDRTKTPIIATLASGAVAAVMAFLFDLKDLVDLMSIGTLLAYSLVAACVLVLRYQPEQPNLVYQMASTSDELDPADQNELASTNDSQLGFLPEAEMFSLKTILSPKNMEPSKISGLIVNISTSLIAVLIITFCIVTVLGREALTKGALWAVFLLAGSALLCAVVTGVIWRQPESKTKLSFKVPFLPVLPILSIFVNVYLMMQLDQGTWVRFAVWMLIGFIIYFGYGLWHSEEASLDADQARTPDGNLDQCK

Structure (SMILES)	inhibition at 20 µM [1] [%]	inhibition at 200 µM [1] [%]	inhibition at 20 µM [2] [%]	inhibition at 200 µM [2] [%]	inhibition at 20 µM [3] [%]	inhibition at 200 µM [3] [%]
CCOC(=O)C1=C(C)NC(C)=C(C(=O)OC)C1c1cccc([N+](=O)[O-])c1 (centres unmarked) [Nitrendipine]	-1.5 ± 7.1	26.1 ± 8.1	3.2 ± 9.5	30.4 ± 0.8	3.4 ± 8.7	15.2 ± 4.5
CN(C)C(=N)NC(=N)N [Metformin]	-20.7 ± 14.1	-23.1 ± 1.4	-8 ± 4.3	-8.4 ± 3.1	-20.4 ± 13.7	-18.8 ± 1.3
CCOC(=O)[C@H](CCc1ccccc1)N[C@@H](C)C(=O)N1[C@H](C(=O)O)C[C@@H]2CCC[C@@H]21 [Ramipril]	0.3 ± 12	-5.8 ± 2.3	0.1 ± 6.9	-31.1 ± 6.9	-0.7 ± 11.5	-6.5 ± 2
C[C@]12CC[C@@H]3c4ccc(O)cc4CC[C@H]3[C@@H]1CC[C@@H]2O [Beta estradiol]	0.3 ± 4.5	-19.1 ± 7.2	-9.8 ± 7.2	-32.9 ± 6.4	-0.1 ± 4.2	-13.7 ± 11.3
CCCCc1nc(Cl)c(CO)n1Cc1ccc(-c2ccccc2-c2nnn[nH]2)cc1 [Losartan]	13.5 ± 1.7	-34.8 ± 1.4	7 ± 3.8	12.9 ± 4.1	11 ± 0.5	-27.1 ± 2
NC(=O)N1c2ccccc2C=Cc2ccccc21 [Carbamazepine]	17.8 ± 4.1	0.7 ± 4.3	4.8 ± 2.1	12.8 ± 4.2	18.9 ± 3.5	12.7 ± 3.9
Cc1nnc2n1-c1ccc(Cl)cc1C(c1ccccc1)=NC2 [Alprazolam]	-3.9 ± 5.3	8 ± 2.7	5.8 ± 3.8	4.1 ± 9.5	-4.3 ± 5.2	9.6 ± 1
Nc1ccn([C@@H]2CS[C@H](CO)O2)c(=O)n1 [Lamivudine]	27.4 ± 4.6	-3.9 ± 4.6	-5.3 ± 4	22.9 ± 4.9	-3.4 ± 0.3	-3.1 ± 1.4
CC(=O)S[C@@H]1CC2=CC(=O)CC[C@]2(C)[C@H]2CC[C@@]3(C)[C@@H](CC[C@@]34CCC(=O)O4)[C@H]12 [Spironolactone]	-3.7 ± 5.3	-4.8 ± 6.6	3.2 ± 2.3	-7.6 ± 2.1	-3.9 ± 5.2	-11.5 ± 2.8
CC[C@H]1OC(=O)[C@H](C)[C@@H](O[C@H]2C[C@@](C)(OC)[C@@H](O)[C@H](C)O2)[C@H](C)[C@@H](O[C@@H]2O[C@H](C)C[C@H](N(C)C)[C@H]2O)[C@](C)(O)C[C@@H](C)CN(C)[C@H](C)[C@@H](O)[C@]1(C)O [Azithromycin]	7 ± 7.2	16.7 ± 5.2	2.8 ± 3.4	12.9 ± 3.7	20.8 ± 3.3	26.8 ± 2.3
Cc1ccc(NC(=O)c2ccc(CN3CCN(C)CC3)cc2)cc1Nc1nccc(-c2cccnc2)n1 [Imatinib]	-8.2 ± 5.2	-42.8 ± 0.3	11.2 ± 3.4	20.7 ± 14.1	-24.9 ± 2.1	-20.9 ± 1.1
CNCCC(Oc1ccc(C(F)(F)F)cc1)c1ccccc1 (centres unmarked) [Fluoxetine]	46.5 ± 8.5	26 ± 1.5	-2.4 ± 2	-18.8 ± 7.8	-4.4 ± 5.2	25.6 ± 1.2
CC[C@H](C)C(=O)O[C@H]1C[C@H](O)C=C2C=C[C@H](C)[C@H](CC[C@@H](O)C[C@@H](O)CC(=O)O)[C@H]21 [Pravastatin]	0.2 ± 4.4	4.1 ± 2.6	-18.5 ± 3.3	-4.4 ± 9.6	-0.4 ± 3.8	-10.1 ± 1.4
COCCc1ccc(OCC(O)CNC(C)C)cc1 (centres unmarked) [Metoprolol]	8.1 ± 6.7	1.3 ± 3.8	-15.1 ± 7.1	19.8 ± 4.1	-21.4 ± 3.7	0.3 ± 2.5
CN1CCOC(c2ccccc2)c2ccccc2C1 (centres unmarked) [Nefopam]	-17.2 ± 10.5	-13.9 ± 5.1	-3.2 ± 0.4	32.6 ± 3.7	-8.3 ± 1.6	-11.6 ± 3.2
C[C@]12C=CC(=O)C=C1CC[C@@H]1[C@@H]2[C@@H](O)C[C@@]2(C)[C@H]1CC[C@]2(O)C(=O)CO [Prednisolone]	12.5 ± 4.1	-21.4 ± 1.3	-3.3 ± 6.9	13.4 ± 4.7	-11.1 ± 5.8	-16.5 ± 2.4
CN/C(=N\CCSCc1nc[nH]c1C)NC#N [Cimetidine]	0.2 ± 7.2	-65.4 ± 5.8	21.9 ± 3.1	1.1 ± 2.5	21.9 ± 3	-31.2 ± 1.3
Oc1ncnc2[nH]ncc12 [Allopurinol]	5 ± 16.4	14.1 ± 9.6	16.9 ± 2.6	2 ± 7	–	-2.6 ± 1.6
COc1cc(Cc2cnc(N)nc2N)cc(OC)c1OC [Trimethoprim]	9.9 ± 4.2	-16.3 ± 6.7	-13.7 ± 2.8	-68.1 ± 11.3	-17 ± 1.9	-13.8 ± 4.1
CC12CC3CC(C)(C1)CC(N)(C3)C2 [Memantine]	-3.2 ± 3.9	-21.7 ± 5.1	14.8 ± 2.6	-9.6 ± 1.8	-3.9 ± 3.4	-16.6 ± 0.8
CCCc1nc(C(C)(C)O)c(C(=O)O)n1Cc1ccc(-c2ccccc2-c2nnn[nH]2)cc1 [Olmesartan]	2.8 ± 2.3	-32.8 ± 1.4	-13.2 ± 1.9	-7.7 ± 3.5	3 ± 2.3	-13.7 ± 5.1
COc1ccc2c(c1)[C@]13CCCC[C@@H]1[C@H](C2)N(C)CC3 [Dextromethorphan]	7.3 ± 1.9	2.9 ± 3.4	-3.3 ± 0.3	6.2 ± 3.4	-0.5 ± 5.8	3.1 ± 0.7
CN(C)CCCN1c2ccccc2CCc2ccc(Cl)cc21 [Clomipramine]	-4.1 ± 0.9	-12.8 ± 4.8	18 ± 3.1	14 ± 1.9	-4.5 ± 0.7	-12.2 ± 3.9
CN(C)CCCN1c2ccccc2CCc2ccccc21 [Imipramine]	0.08 ± 4.8	22.6 ± 5.7	-4.3 ± 2.1	14.1 ± 4.1	-3.1 ± 1.6	15 ± 2.1
CC(C)NCC(O)COc1cccc2ccccc12 (centres unmarked) [Propranolol]	-0.9 ± 8.1	-1.1 ± 7.8	-27.2 ± 3.6	-36.3 ± 9.5	-21.6 ± 0.7	-3.5 ± 2.1
COc1ccc(OC)c(C(O)C(C)N)c1 (centres unmarked) [Methoxamine]	24.5 ± 10.5	-23.9 ± 3.7	0.7 ± 11.9	1.8 ± 0.9	0.7 ± 11.9	-23.9 ± 2.1
O=C(O)CCCc1ccc(N(CCCl)CCCl)cc1 [Chlorambucil]	-23.3 ± 3.8	-43.3 ± 6.5	-5.1 ± 2.8	13.9 ± 4.4	-18.6 ± 1.4	-41.6 ± 6.4
Nc1nc(N)c2nc(-c3ccccc3)c(N)nc2n1 [Triamterene]	5.1 ± 8.8	16.7 ± 1.6	12.6 ± 3.2	-10.6 ± 0.6	10.7 ± 2.1	14.1 ± 0.5
O=C(O)c1cc(-c2ccc(F)cc2F)ccc1O [Diflunisal]	26.6 ± 0.9	-20.5 ± 3.3	-42.4 ± 4.5	10 ± 2.1	27.9 ± 1	-20 ± 0.5
